Data published in EP1900728A1 (Genecare Research Institute Co., Ltd, priority 2005, dated 2006).
Read-outs that look alike come from different tables or passages of the source.

Tests used:
[1] = biological target: T1, IκBα ubiquitinating enzyme (SCF complex: ROC1, Cullin1, Skp1, His-TrCP1; with E1, UbcH5b) (Homo sapiens, UniProt P62877+P63208+Q13616+Q9Y297); assay: Measurement of ubiquitinating enzyme activity (IκBα ubiquitination, time-resolved fluorescence with Eu(K)-labeled ubiquitin and XL665-labeled anti-GST antibody); type: biochemical
T1 construct: His (polyhistidine); made in house; host or cells: insect cells (baculovirus) for the SCF complex and His-E1; E. coli for His-UBCH5b
In short: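 Human SCF complex with E1 and UbcH5b ubiquitinated GST-IκBα pre-phosphorylated by IKKβ (2 mM ATP, pH 7.4, 1 h, RT), with Eu(K)-ubiquitin, 30 min RT. Stopped with EDTA, XL665 anti-GST added for 2 h; 665/620 nm TR-FRET ratio. % inhibition versus no-compound control and no-SCF blank gave IC50.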

[2] = system: ICAM-1 expression in HT-29 cells; assay: Measurement of ICAM-1 expressing activity (TNFα-induced ICAM-1 expression, cell ELISA); type: cell-based; conditions: Homo sapiens, Table 6, cell activity inhibition test by method (3), read-out: EVALUATION (IC50 class, inhibition of cell activity)
Experimental: Method 2: Measurement of ICAM-1 expressing activity
2.0 x 10^4 HT-29 cells (ATCC) were plated onto a 96-well plate, and the cells were cultured for 48 hours using a McCoy' 5A medium (GIBCO) containing 10% inactivated fetal calf serum. The culture medium was removed, a culture medium containing a compound to be evaluated (final DMSO concentration of 0.5%) was added, and this was incubated at 37°C for 30 minutes. Thirty ng/mL of human TNFα (GIBCO) was added, and this was incubated at 37°C for 4 hours. After washing once with a washing solution (PBS containing 0.05% Tween 20), ice-cooled methanol was added, and this was left on ice for 10 minutes and then fixed. After removing methanol, PBS containing 1% BSA was added, and blocking was performed by letting this stand at room temperature for 30 minutes. Anti-ICAM-1 antibody (Santa Cruz Biotechnology) was added, and this was left to stand at room temperature for 1 hour. After washing with the washing solution, POD-labeled secondary antibody was added, and this was left to stand at room temperature for 30 minutes. This was washed, 100 µL of 100 mM citric acid buffer (pH4.2) containing 1 mM TMBZ and 0.03% H2O2 was added, and this was reacted at room temperature for 15 minutes. The reaction was terminated with 100 µL of 2 N H2SO4, and the absorbance at 450 nm was measured using ARVO-HTS (Perkin Elmer).
When cells are stimulated with TNFα, IκBα is degraded after ubiquitination resulting in the activation of NFκB and the promotion of the expression of adhesion factor ICAM-1. Therefore, the suppression of ICAM-1 expression described above serves as an indicator to determine the effectiveness of the compound in the cells.

[3] = enzyme activity inhibition test, method (1), Table 5, read-out: EVALUATION

T1 sequence (Q9Y297 whole entry): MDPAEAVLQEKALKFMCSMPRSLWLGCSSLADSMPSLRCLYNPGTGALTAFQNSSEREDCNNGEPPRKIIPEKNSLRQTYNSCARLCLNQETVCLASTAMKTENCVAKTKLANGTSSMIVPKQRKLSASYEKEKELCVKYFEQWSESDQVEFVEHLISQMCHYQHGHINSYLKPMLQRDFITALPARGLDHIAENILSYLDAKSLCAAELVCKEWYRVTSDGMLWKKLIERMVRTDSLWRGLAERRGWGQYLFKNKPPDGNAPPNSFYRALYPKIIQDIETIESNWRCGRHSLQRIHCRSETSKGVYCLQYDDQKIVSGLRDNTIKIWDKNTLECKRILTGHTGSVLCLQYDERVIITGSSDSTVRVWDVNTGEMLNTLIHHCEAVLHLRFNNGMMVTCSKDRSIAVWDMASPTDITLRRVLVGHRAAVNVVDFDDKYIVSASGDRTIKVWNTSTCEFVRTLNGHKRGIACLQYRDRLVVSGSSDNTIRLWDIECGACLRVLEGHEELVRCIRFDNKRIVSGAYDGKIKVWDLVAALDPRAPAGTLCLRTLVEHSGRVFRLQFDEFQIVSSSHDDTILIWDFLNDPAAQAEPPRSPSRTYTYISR
T1 sequence (Q13616 whole entry): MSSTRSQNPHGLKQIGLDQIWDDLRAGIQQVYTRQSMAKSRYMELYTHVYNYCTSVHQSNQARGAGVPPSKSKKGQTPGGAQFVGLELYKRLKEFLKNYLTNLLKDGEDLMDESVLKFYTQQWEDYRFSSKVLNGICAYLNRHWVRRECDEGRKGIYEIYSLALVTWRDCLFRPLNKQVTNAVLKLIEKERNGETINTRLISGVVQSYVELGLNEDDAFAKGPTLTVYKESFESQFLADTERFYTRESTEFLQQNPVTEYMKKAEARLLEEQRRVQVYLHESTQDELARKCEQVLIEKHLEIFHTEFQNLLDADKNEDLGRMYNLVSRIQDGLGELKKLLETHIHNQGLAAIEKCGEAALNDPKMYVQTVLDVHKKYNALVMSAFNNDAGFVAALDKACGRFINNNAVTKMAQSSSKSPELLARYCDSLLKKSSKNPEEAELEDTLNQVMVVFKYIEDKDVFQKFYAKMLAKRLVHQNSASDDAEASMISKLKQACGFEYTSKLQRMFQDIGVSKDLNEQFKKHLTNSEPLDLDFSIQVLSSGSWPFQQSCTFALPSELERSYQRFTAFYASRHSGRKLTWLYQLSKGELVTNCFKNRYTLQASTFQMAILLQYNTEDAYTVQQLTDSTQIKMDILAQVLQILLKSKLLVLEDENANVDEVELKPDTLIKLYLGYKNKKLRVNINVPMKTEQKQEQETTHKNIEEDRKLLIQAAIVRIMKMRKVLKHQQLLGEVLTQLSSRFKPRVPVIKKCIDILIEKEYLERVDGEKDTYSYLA
T1 sequence (P63208 whole entry): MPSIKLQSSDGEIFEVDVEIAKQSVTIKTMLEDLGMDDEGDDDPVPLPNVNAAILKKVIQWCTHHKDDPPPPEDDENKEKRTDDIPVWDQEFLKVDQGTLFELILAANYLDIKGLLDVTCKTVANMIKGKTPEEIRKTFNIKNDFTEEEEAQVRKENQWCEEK
T1 sequence (P62877 whole entry): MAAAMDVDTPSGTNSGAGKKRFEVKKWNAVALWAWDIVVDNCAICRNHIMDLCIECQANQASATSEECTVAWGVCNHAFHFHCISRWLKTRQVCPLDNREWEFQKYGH

Row | SMILES | IC50 [2] [µM] | IC50 [1, 3] [µM] | IC50 [1] [µM] | IC50 ([1]; read-out: EVALUATION, enzyme activity inhibition test, method (1), Table 5) [µM]
1 | CC1=NN(c2cccc(S(N)(=O)=O)c2)C(=O)C1=Cc1ccc(N2CCN(C(=O)OC(C)(C)C)CC2)cc1 [Compound 180] | < 40 |  | 10 to 20 | 
2 | COc1cc(C=C2C(=O)N(c3cccc4ccccc34)N=C2C)ccc1O [Compound 195] | 10 to 20 |  | < 10 | 
3 | COc1cc(/C=C2/C(=O)N(C3CCCCC3)N=C2C)ccc1O [Compound 199] | < 10 | 10 to 20 |  | 
4 | CC1=NN(c2ccccc2)C(=O)/C1=C\c1ccc(N2CCNCC2)cc1 [Compound 200] | < 40 | 10 to 20 |  | 
5 | COc1cc(C=C2C(=O)N(Cc3ccccc3)N=C2C)ccc1O [Compound 201] | 10 to 20 |  | < 10 | 
6 | COc1cc(/C=C2\C(=O)N(c3ccc(S(N)(=O)=O)cc3)N=C2C)ccc1OS(=O)(=O)c1ccc(C)cc1 [Compound 202] | < 40 | 10 to 20 |  | 
7 | CCCNC(=O)COc1ccc(C=C2C(=O)N(c3ccccc3)N=C2C)cc1 [Compound 204] | 10 to 20 |  | 10 to 20 | 
8 | CC1=NN(c2ccc(S(N)(=O)=O)cc2)C(=O)/C1=C\c1ccc(OCC(N)=O)cc1 [Compound 208] | < 40 | < 10 |  | 
9 | CC1=NN(c2ccc(S(N)(=O)=O)cc2)C(=O)C1=Cc1ccc(OCC(=O)Nc2ccccc2)cc1 [Compound 210] | 10 to 20 |  | < 10 | 
10 | CCCNC(=O)COc1ccc(C=C2C(=O)N(c3ccc(S(N)(=O)=O)cc3)N=C2C)cc1 [Compound 211] | < 40 |  | 10 to 20 | 
11 | CC1=NN(c2ccccc2)C(=O)C1=Cc1ccc(Oc2ccccc2)cc1 [Compound 212] | 10 to 20 |  | 10 to 20 | 
12 | CC1=NN(c2ccc(S(N)(=O)=O)cc2)C(=O)/C1=C\c1ccc(Oc2ccccc2)cc1 [Compound 213] | < 10 | 10 to 20 |  | 
13 | CC1=NN(c2ccc(S(N)(=O)=O)cc2)C(=O)/C1=C\c1ccc(OCC(=O)O)cc1 [Compound 214] | < 40 | 10 to 20 |  | 
14 | CCOC(=O)COc1ccc(C=C2C(=O)N(c3ccc(S(N)(=O)=O)cc3)N=C2C)cc1 [Compound 215] | 10 to 20 |  | 10 to 20 | 
15 | CC1=NN(c2ccc(S(N)(=O)=O)cc2)C(=O)C1=Cc1ccc(OCc2ccc([N+](=O)[O-])cc2)cc1 [Compound 216] | < 40 |  | < 10 | 
16 | CC1=NN(c2ccc(S(N)(=O)=O)cc2)C(=O)C1=Cc1ccc(O)cc1 [Compound 218] | < 40 | 10 to 20 |  | 
17 | CC1=NN(c2ccc(S(N)(=O)=O)cc2)C(=O)/C1=C\c1ccccc1OS(=O)(=O)c1ccc(C)cc1 [Compound 220] | < 10 | 10 to 20 |  | 

Row | SMILES | IC50 [2] [µM] | IC50 [1, 3] [µM] | IC50 [1] [µM] | IC50 ([1]; read-out: EVALUATION, enzyme activity inhibition test, method (1), Table 5) [µM]
18 | CC1=NN(c2ccc(S(N)(=O)=O)cc2)C(=O)/C1=C\c1ccc(NC(=O)c2ccccc2)cc1 [Compound 224] | 10 to 20 | < 10 |  | 
19 | CC1=NN(c2ccc(S(N)(=O)=O)cc2)C(=O)C1=Cc1ccc(NC(=O)c2ccccc2F)cc1 [Compound 225] | < 40 |  | < 10 | 
20 | CC1=NN(c2ccc(S(N)(=O)=O)cc2)C(=O)C1=Cc1ccc(NC(=O)c2ccc(F)cc2)cc1 [Compound 226] | 10 to 20 |  | < 10 | 
21 | CC1=NN(c2ccc(S(N)(=O)=O)cc2)C(=O)C1=Cc1ccc(NC(=O)c2ccc3ccccc3c2)cc1 [Compound 227] | 10 to 20 |  | < 10 | 
22 | COc1ccccc1C(=O)Nc1ccc(C=C2C(=O)N(c3ccc(S(N)(=O)=O)cc3)N=C2C)cc1 [Compound 228] | 10 to 20 |  | < 10 | 
23 | COc1ccc(C(=O)Nc2ccc(C=C3C(=O)N(c4ccc(S(N)(=O)=O)cc4)N=C3C)cc2)cc1 [Compound 229] | 10 to 20 |  | < 10 | 
24 | CC1=NN(c2ccc(S(N)(=O)=O)cc2)C(=O)/C1=C\c1ccc(NC(=O)/C=C/c2ccccc2)cc1 [Compound 230] | < 40 | < 10 |  | 
25 | CC(C)=CC(=O)Nc1ccc(C=C2C(=O)N(c3ccc(S(N)(=O)=O)cc3)N=C2C)cc1 [Compound 232] | < 40 |  | 10 to 20 | 
26 | COCC1=NN(c2ccc(C(=O)O)cc2)C(=O)C1=Cc1ccc(OCc2ccccc2)c(OC)c1 [Compound 234, 4-[4-(Benzyloxy-3-methoxy-benzylidine)-3-methoxymethyl-5-oxo-4,5-dihydroxy-pyrazol-1-yl] benzoic acid] | < 10 |  |  | < 10
27 | COCC1=NN(c2ccc(C(=O)O)cc2)C(=O)/C1=C\c1ccc(N2CCN(C(=O)OC)CC2)cc1 [Compound 235] | < 10 | < 10 |  | 
28 | COCC1=NN(c2ccc(C(=O)O)cc2)C(=O)/C1=C\c1ccc(N2CCCC2)cc1 [Compound 236] | 10 to 20 | < 10 |  | 
29 | COCC1=NN(c2ccc(C(=O)O)cc2)C(=O)/C1=C\c1nccs1 [Compound 237] | < 40 | 10 to 20 |  | 
30 | COCC1=NN(c2ccc(C(=O)O)cc2)C(=O)/C1=C\c1ccc2c(c1)OCCO2 [Compound 239] | < 10 | < 10 |  | 
31 | COC(=O)N1CCN(c2ccc(C=C3C(=O)N(c4ccc(C(=O)O)cc4)N=C3c3ccoc3)cc2)CC1 [Compound 245] | 10 to 20 |  | < 10 | 
32 | COC(=O)N1CCN(c2ccc(C=C3C(=O)N(c4ccc(C(=O)O)cc4)N=C3C)cc2)CC1 [Compound 254] | < 40 |  | < 10 | 
33 | CC1=NN(c2ccc(C(=O)O)cc2)C(=O)/C1=C\c1ccc(N2CCCC2)cc1 [Compound 256] | < 40 | 10 to 20 |  | 
34 | CC1=NN(c2ccc(C(=O)O)cc2)C(=O)/C1=C\c1ccc2c(c1)OCCO2 [Compound 259] | < 10 | < 10 |  | 

Further lines, with some results ahead:

Row | IC50 [2] [µM] | IC50 [1, 3] [µM] | SMILES | IC50 [1] [µM] | IC50 ([1]; read-out: EVALUATION, enzyme activity inhibition test, method (1), Table 5) [µM]
35 | 10 to 20 | < 10 | CC1=NN(Cc2cccc(O)c2)C(=O)/C1=C\c1ccc(-c2ccccc2F)o1 [Compound 185] |  | 
36 | < 40 | 10 to 20 | Cn1cc(-c2ccc(/C=C3\C(=O)N(Cc4cccc(O)c4)N=C3c3ccoc3)o2)cn1 [Compound 188] |  | 
37 | 10 to 20 | 10 to 20 | COCC1=NN(Cc2cccc(O)c2)C(=O)/C1=C\c1ccc(-c2ccccc2F)o1 [Compound 190] |  | 
38 | < 10 | < 10 | COCC1=NN(c2ccc(C(=O)O)cc2)C(=O)/C1=C\c1ccc2ccccc2c1 [Compound 233] |  | 
39 | < 40 | < 10 | COCC1=NN(c2ccc(C(=O)O)cc2)C(=O)/C1=C\c1ccc(-n2ccnc2)cc1 [Compound 238] |  | 
40 | 10 to 20 | < 10 | COCC1=NN(c2ccc(C(=O)O)cc2)C(=O)/C1=C\c1ccc(-n2cccn2)cc1 [Compound 242] |  | 
41 | < 10 | < 10 | COCC1=NN(c2ccc(C(=O)O)cc2)C(=O)/C1=C\c1ccc(-n2cncn2)cc1 [Compound 243] |  | 
42 | 10 to 20 | < 10 | COc1cc(/C=C2\C(=O)N(c3ccc(C(=O)O)cc3)N=C2c2ccoc2)ccc1O [Compound 244] |  | 
43 | < 10 | < 10 | O=C(O)c1ccc(N2N=C(c3ccoc3)/C(=C/c3ccc(-c4ccccc4F)o3)C2=O)cc1 [Compound 246] |  | 
44 | < 40 | < 10 | O=C(O)c1ccc(N2N=C(c3ccoc3)/C(=C/c3ccc(CO)o3)C2=O)cc1 [Compound 247] |  | 
45 | 10 to 20 | < 10 | O=C(O)c1ccc(N2N=C(c3ccoc3)/C(=C/c3ccc(N4CCCC4)cc3)C2=O)cc1 [Compound 248] |  | 
46 | < 40 | 10 to 20 | O=C(O)c1ccc(N2N=C(c3ccoc3)/C(=C/c3nccs3)C2=O)cc1 [Compound 249] |  | 
47 | < 40 | < 10 | O=C(O)c1ccc(N2N=C(c3ccoc3)/C(=C/c3ccc(-n4ccnc4)cc3)C2=O)cc1 [Compound 250] |  | 
48 | < 40 | < 10 | O=C(O)c1ccc(N2N=C(c3ccoc3)/C(=C/c3ccc(-n4cncn4)cc3)C2=O)cc1 [Compound 252] |  | 
49 | 10 to 20 | < 10 | CC1=NN(c2ccc(C(=O)O)cc2)C(=O)/C1=C\c1ccc2ccccc2c1 [Compound 253] |  | 
50 | 10 to 20 | < 10 | CC1=NN(c2ccc(C(=O)O)cc2)C(=O)/C1=C\c1ccc(CO)o1 [Compound 255] |  | 
51 | 10 to 20 | < 10 | CC1=NN(c2ccc(C(=O)O)cc2)C(=O)/C1=C\c1ccc(-n2ccnc2)cc1 [Compound 258] |  | 
52 | 10 to 20 | < 10 | CC1=NN(c2ccc(C(=O)O)cc2)C(=O)/C1=C\c1ccc(-n2cccn2)cc1 [Compound 261] |  | 
53 | 10 to 20 | < 10 | CC1=NN(c2ccc(C(=O)O)cc2)C(=O)/C1=C\c1ccc(-n2cncn2)cc1 [Compound 262] |  | 
